These results are taken from publication PMC10419279, “Biochemical and Functional Characterization of the Three Zebrafish Transglutaminases 2” (International Journal of Molecular Sciences, 2023).

Square brackets hold non-standard residues; d marks the D form. Peptide text beside a SMILES is read from it. * marks the point of attachment. DON = [N-]=[N+]=CC(=O)CC[C@H](N)C(=O)O; Cbz = O=C(OCc1ccccc1)*

Holding throughout (experiment): ELISA, pentylamine-biotin incorporation into coated N,N-dimethylcasein
Common to all, as to format: biochemical
Background: ELISA stands for enzyme-linked immunosorbent assay.

Experiment [1] has as its target T1, zTG2b (Danio rerio, UniProt A0ACM8QA61).
T1 construct: gene tgm2b; full-length CDS in pET30a(+), His6-tagged (text: C-terminal His-tag; reverse primer keeps stop codon), E. coli BL21(DE3), Ni-NTA; primer-encoded N-terminus MALDIG, C-terminus VIIGK
T1 sequence (A0ACM8QA61 1-679): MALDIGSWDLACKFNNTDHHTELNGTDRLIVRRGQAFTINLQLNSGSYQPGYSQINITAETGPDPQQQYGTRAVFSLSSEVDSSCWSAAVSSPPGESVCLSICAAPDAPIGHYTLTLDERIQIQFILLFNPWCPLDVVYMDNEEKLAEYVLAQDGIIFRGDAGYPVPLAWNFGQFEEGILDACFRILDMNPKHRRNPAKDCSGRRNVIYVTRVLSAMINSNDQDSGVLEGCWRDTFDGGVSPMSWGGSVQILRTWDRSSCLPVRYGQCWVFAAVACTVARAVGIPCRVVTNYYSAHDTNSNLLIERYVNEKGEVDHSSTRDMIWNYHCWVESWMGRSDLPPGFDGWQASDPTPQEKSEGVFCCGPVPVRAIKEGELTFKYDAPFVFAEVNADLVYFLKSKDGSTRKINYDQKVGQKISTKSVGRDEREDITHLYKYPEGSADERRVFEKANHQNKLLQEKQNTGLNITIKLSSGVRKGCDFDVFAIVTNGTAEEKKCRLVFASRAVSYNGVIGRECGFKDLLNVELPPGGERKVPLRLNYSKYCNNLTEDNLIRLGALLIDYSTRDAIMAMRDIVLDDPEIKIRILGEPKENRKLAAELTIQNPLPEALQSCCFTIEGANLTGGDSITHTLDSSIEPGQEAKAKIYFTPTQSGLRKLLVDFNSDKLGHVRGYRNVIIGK
Particulars: 50 ng enzyme, 0.2 mM pentylamine-biotin, 5 mM CaCl2, 10 mM DTT, pH 8.0, 37 °C, 1 h; methods print inhibitor doses as mM.

The target in experiment [2] is T2, zTG2a (Danio rerio, UniProt Q66L63).
T2 construct: gene tgm2a; full-length CDS in pET30a(+), His6-tagged (text: C-terminal His-tag; reverse primer keeps stop codon), E. coli BL21(DE3), Ni-NTA; primer-encoded N-terminus MERVVE, C-terminus LVIYE
T2 sequence (Q66L63 1-679): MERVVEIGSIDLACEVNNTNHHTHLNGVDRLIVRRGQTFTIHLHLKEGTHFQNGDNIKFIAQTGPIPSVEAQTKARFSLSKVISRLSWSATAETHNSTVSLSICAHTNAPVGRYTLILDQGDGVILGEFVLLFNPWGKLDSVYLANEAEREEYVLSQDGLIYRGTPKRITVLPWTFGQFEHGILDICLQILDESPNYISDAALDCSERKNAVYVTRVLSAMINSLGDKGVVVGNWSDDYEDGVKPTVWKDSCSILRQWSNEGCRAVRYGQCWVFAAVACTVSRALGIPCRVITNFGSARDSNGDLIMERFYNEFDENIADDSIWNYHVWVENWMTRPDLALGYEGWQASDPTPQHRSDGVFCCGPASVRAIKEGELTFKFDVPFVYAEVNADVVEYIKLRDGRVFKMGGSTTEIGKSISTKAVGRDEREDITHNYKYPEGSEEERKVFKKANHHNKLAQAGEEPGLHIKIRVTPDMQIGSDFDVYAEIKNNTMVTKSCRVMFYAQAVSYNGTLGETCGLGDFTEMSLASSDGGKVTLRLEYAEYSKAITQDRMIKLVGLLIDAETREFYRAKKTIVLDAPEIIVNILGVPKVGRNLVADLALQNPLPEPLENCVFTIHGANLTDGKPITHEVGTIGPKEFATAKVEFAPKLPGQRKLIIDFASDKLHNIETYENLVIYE

Experiment [3] addresses T3, zTG2like (Danio rerio, UniProt A3KQ87).
T3 construct: gene tgm2l; full-length CDS in pET30a(+), His6-tagged (text: C-terminal His-tag; reverse primer keeps stop codon), E. coli BL21(DE3), Ni-NTA; primer-encoded N-terminus MASYNA, C-terminus AVPEI
T3 sequence (A3KQ87 1-692): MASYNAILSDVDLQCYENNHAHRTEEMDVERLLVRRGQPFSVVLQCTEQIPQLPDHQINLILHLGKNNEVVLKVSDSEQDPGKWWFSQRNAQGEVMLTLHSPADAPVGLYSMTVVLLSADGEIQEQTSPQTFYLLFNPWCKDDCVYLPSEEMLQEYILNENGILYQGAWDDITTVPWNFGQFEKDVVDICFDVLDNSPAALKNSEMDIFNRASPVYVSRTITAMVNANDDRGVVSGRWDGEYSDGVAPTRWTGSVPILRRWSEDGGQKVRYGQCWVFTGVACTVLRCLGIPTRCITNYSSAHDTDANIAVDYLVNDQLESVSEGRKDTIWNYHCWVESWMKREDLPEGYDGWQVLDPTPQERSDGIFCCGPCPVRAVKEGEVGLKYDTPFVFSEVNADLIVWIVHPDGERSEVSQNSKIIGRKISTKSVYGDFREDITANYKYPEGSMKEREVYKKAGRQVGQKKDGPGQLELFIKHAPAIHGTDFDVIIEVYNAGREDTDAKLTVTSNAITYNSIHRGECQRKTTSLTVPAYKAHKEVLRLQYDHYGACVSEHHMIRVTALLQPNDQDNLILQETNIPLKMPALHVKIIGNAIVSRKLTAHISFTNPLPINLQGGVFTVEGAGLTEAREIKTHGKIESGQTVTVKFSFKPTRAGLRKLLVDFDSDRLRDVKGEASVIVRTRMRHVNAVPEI

Experiment [4] addresses T2, zTG2a. Particulars: 50 ng enzyme, 0.2 mM pentylamine-biotin, 5 mM CaCl2, 10 mM DTT, pH 8.0, 37 °C, 1 h; GTP 100 µM (methods) or 100 mM (figure legend).
The target of experiment [5] is T4, hTG2 (Homo sapiens, UniProt P21980).
T4 construct: gene TGM2; recombinant hTG2 used as positive control; source and tag of purified protein not detailed; 77 kDa
T4 sequence (P21980 2-687): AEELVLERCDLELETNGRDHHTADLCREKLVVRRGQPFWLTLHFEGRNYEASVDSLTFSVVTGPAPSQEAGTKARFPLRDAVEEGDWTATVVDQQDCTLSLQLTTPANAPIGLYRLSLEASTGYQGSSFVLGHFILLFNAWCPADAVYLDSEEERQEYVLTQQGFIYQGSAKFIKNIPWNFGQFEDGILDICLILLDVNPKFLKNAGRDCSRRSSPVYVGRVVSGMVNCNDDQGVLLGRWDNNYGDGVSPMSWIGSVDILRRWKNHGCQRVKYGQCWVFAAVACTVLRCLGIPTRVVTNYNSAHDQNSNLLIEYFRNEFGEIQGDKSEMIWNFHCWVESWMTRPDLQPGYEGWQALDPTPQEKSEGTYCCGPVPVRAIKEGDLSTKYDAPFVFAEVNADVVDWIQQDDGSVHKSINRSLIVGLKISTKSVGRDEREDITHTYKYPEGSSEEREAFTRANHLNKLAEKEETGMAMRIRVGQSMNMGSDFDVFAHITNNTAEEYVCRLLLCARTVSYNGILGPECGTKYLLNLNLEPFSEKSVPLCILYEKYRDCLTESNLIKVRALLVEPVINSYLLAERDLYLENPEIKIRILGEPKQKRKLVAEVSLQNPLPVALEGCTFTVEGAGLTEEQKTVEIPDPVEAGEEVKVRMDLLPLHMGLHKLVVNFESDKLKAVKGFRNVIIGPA
Particulars: 50 ng enzyme, 0.2 mM pentylamine-biotin, 5 mM CaCl2, 10 mM DTT, pH 8.0, 37 °C, 1 h; GTP 100 µM (methods) or 100 mM (figure legend).

Experiment [6] concerns the target T3, zTG2like. Particulars: amine co-substrate with N,N-dimethylcasein; 5 mM CaCl2, 10 mM DTT, pH 8.0, 37 °C. An excerpt:
ELISA, pentylamine-biotin incorporation into coated N,N-dimethylcasein on zTG2like | incorporate pentylamine-biotin into the substrate N,N-dimethylcasein in solution. All three zebrafish TGs2

The target of experiment [7] is T4, hTG2. Particulars: amine co-substrate with N,N-dimethylcasein; 5 mM CaCl2, 10 mM DTT, pH 8.0, 37 °C.
Experiment [8] concerns the target T2, zTG2a. Particulars: amine co-substrate with N,N-dimethylcasein; 5 mM CaCl2, 10 mM DTT, pH 8.0, 37 °C. An excerpt:
ELISA, pentylamine-biotin incorporation into coated N,N-dimethylcasein on zTG2a | incorporate pentylamine-biotin into the substrate N,N-dimethylcasein in solution. All three zebrafish TGs2

Experiment [9] has as its target T1, zTG2b. Particulars: amine co-substrate with N,N-dimethylcasein; 5 mM CaCl2, 10 mM DTT, pH 8.0, 37 °C. An excerpt: ELISA, pentylamine-biotin incorporation into coated N,N-dimethylcasein on zTG2b | incorporate pentylamine-biotin into the substrate N,N-dimethylcasein in solution. All three zebrafish TGs2

For `COC(=O)[C@H](CC(C)C)NC(=O)[C@@H]1CCCN1C(=O)[C@@H](NC(=O)[C@H](CCC(=O)C=[N+]=[N-])NC(=O)OCc1ccccc1)C(C)C` [ZDON] (Cbz-[DON]VPL-OMe), the “% inhibition at 25 μM” value at zTG2b [1] is recorded as ~ 50%. Moreover, the inhibition at 25 µM on zTG2a [2] and against zTG2like [3] was roughly 50% in each case.

As to `Nc1nc2c(ncn2[C@@H]2O[C@H](COP(=O)(O)OP(=O)(O)OP(=O)(O)O)[C@@H](O)[C@H]2O)c(=O)[nH]1` [GTP], the “% inhibition” value on zTG2a [4] is reported as “zTG2a is the only zebrafish TG2 whose activity is affected by the presence of GTP”; at hTG2 [5] it was “the inhibitory effect of GTP was only one third of that observed for the human enzyme”.

As for `NCCCCCNC(=O)CCCC[C@@H]1SC[C@@H]2NC(=O)N[C@@H]21` [pentylamine-biotin], the “ELISA, pentylamine-biotin incorporation into coated N,N-dimethylcasein” value on zTG2like [6] is listed as “incorporate pentylamine-biotin into the substrate N,N-dimethylcasein in solution. All three zebrafish TGs2”; at hTG2 [7] it was “as well as the human enzyme were able to mediate the transamidation reaction”; at zTG2a [8] it was “incorporate pentylamine-biotin into the substrate N,N-dimethylcasein in solution. All three zebrafish TGs2”; on zTG2b [9], “incorporate pentylamine-biotin into the substrate N,N-dimethylcasein in solution. All three zebrafish TGs2”.

By inhibition is commonly meant how much of the control response was suppressed.
